The test system of one series is Dunaliella sp. As to the kind of experiment: Microalgal PAM fluorometry assay, inhibition of ∆F/Fm′ (24 h, 96-well plate). Type of series: cell-based. To be noted: 24 h. From the text: (§1) Microalgae play a critical role in the marine food web and have been used in a number of sensitive assays for the assessment of toxicity of both herbicides and their transformation products[13],[16],[60]. High throughput 96 well plate designs allow for increased replication and a wide range of concentrations especially when paired with pulse amplitude modulation (PAM) fluorometry[50],[61]. PAM fluorometry measures chlorophyll fluorescence and can be used to calculate inhibitions of effective quantum yield ∆F/Fm′, which is proportional to reduced photosynthetic efficiency[62] and growth in microalgae[63] and can be plotted against toxicant concentrations to derive concentrations that inhibit ∆F/Fm′ by 10, 20 and 50% (IC10, IC20 and IC50). In the present study the green algae (Dunaliella sp.) and coral symbiont (Symbiodinium sp.) were exposed to herbicides and aged herbicide solutions for 24 h in a 96-well plate format. A Maxi-Imaging-PAM (I-PAM) (Walz, GmbH Germany) was used to measure inhibition of ∆F/Fm′ using settings provided previously[36] and below.
(§2) Symbiodinium cells were isolated from coral by air blasting branches of Acropora tenuis colonies collected (collected under the permit G10-33440.1) at 2–5 m depth in Nelly Bay, Magnetic Island, GBR[36]. Symbiodinium cells were inoculated into sterile IMK growing media, the culture purified, DNA extracted, and Clade C1 identified as published previously[64],[65]. Cultures were maintained at 26 °C, 60 µE PAR, 14:10 light:dark photoperiod inside environmental chambers (Steridium e500). The Dunaliella sp. (CS-353) (Chlorophyceae) was obtained from the CSIRO Collection of Living Microalgae (CCLM). The algae was subcultured and grown in F2 media. For the toxicology assays, an exponentially growing culture was employed[63] and density adjusted by hemocytometry under 10× magnification. Day 7 sub-cultures were used throughout the experiment.
(§3) Herbicide solutions were delivered into each treatment plate using a Perkin Elmer Janus liquid handling system. Each well of the black 96-well plates (Perkin Elmer) received 100 µl herbicide solution as well as 100 µl of algal suspension (added via multi-channel pipette) and the solution was gently mixed. […] Each plate included a 3 µg l^−1 positive diuron control (n = 4) to confirm consistent sensitivities among the replicate algal subcultures. Treatments positions were randomised across the plates in duplicate[50],[61],[66]. Symbiodinium culture plates were incubated over a 12:12 h light:dark cycle at 26 °C and 60–70 µmol photons m^−2 s^−1 and Dunaliella sp. Plates incubated at: 26 °C and 130 µmol photons m^−2 s^−1. Microalgae were exposed for 24 h prior to PAM measurements. Samples were subjected to the 50 µmol photons m^−2 s^−1 actinic light for 1 min prior to measurement in the Maxi-IPAM (Actinic light = 1, ML = 10, ML frequency = 8, gain = 2 and damping = 1).
(§4) The model was constrained by applying a lower limit of 0% inhibition and all curves were tested for normality of the residuals and a replicate test was applied to assess the goodness of fit[36]. The probability that ICX values generated by the logistic curves were statistically different between parent and aged herbicide solutions was tested by applying the F test in Graph Pad Prism v6. ICXs were considered different when p < 0.05. Where inhibition data could not be fitted to logistic curves, one-way analysis of variance (ANOVA) was performed to identify treatments which caused significant (p < 0.05) inhibition comparison with control treatments (NCSS v9, Utah, USA). The larval prawn experimental data was arcsine square root transformed prior to statistical analysis.

In a further series the test system is Symbiodinium sp. The series is described as above. The note with it: 24 h. The series is classed as cell-based.
Excerpt: as §1, §2, §3, §4

Series [1] concerns prawn (Penaeus monodon) larvae. Put plainly: Prawn larvae assay, metamorphosis of nauplii into protozoea (24 h static). The series is classed as in vivo. The note with it: 24 h; vs solvent control, ANOVA p < 0.05; aged solutions as concentration of parent herbicide. As for the experimental part: The giant tiger prawn (Penaeus monodon) can be found throughout the tropical Indo-Pacific region and can be obtained from aquaculture facilities and has a well-described life cycle. The aim of the larval prawn assay was to determine whether the herbicides and transformation products inhibit early naupliar development. Prawn eggs hatch into their first larval stage (nauplii), typically 12–15 h after spawning. During development the nauplii are lecithotrophic, and over the course of the next 36 h, nauplii pass through 6 sub-stages before metamorphosing into protozoae[67],[68].
Freshly hatched nauplii were harvested by light attraction over 30 min, and washed and aerated for 10 min with seawater, and transported to AIMS in Townsville, Queensland. […] The toxicity assays were performed in incubator shakers (set to 30 °C) under very low light and with gentle shaking to prevent individuals adhering to the side of experimental containers.
The larval stock was gently concentrated via reverse-gravity filtration to a higher density before dispensing 8–10 individuals per 20 ml glass scintillation vials. Additional positive control treatments in the form of 4 concentrations of copper II chloride solution (2 to 900 µg l^−1 Cu), were included for test validation. The static assay was terminated after 24 h and 10% seawater formalin was added as a preservative for later microscopy. Metamorphosis was considered successful when nauplii had developed into protozoea.
as §4

The nature of series [2]: Herbicide degradation in outdoor tanks with coastal seawater and sediment (330 d). Type of series: physicochemical. To be noted: day 330; seawater with sediment, outdoor tanks. An excerpt: Photosystem II herbicides/transformation product solutions were produced by adding herbicides to seawater within separate 120 l outdoor fibreglass tanks, in the presence of natural coastal sediments (further details can be found in Mercurio 2016)[36]. […] The tanks used were previously described in Mercurio et al.[8], with treatment water being partially shaded (70%) and exposed to a maximum of 700 µmol photons m^−2s^−1 over the course of the experiment. The application of a natural diurnal light regime and coastal sediment were previously shown to increase the rates of PSII herbicide degradation and represent more natural conditions than those used in standard degradation tests[8],[36]. Evaporation was minimised with loose-fitting clear acrylic lids and the water continuously circulated using Turbelle Nanostream pumps. Prior to every sampling period evaporation losses were replenished with equal volumes of MilliQ water. The average temperature was 25.7 °C with a range of 15.6–36.6 °C over the course of the study. Unfiltered coastal seawater and sediments were collected from the intertidal zone adjacent to the Australian Institute of Marine Science (19°16′S, 147°03′E), Cape Cleveland, QLD. The sediments were prepared one week prior to use by sieving (>2 mm removed) and thorough mixing. Each tank contained 5 kg of sediment. Physical and chemical information on the seawater and sediments used the treatments can be found in SOM Table 1.
The 20 tanks included replicates for control seawater (n = 4) and the PSII herbicides diuron (n = 4), atrazine (n = 3), simazine (n = 3), hexazinone (n = 3), and ametryn (n = 3). Herbicide treatments and replicates were randomized among tanks. The herbicides were purchased from Sigma Aldrich (>95% purity) and were introduced at ~1 mg l^−1 to enable direct chemical and toxicological testing of the herbicide transformation product mixtures without additional concentration steps. […] The same concentration was used in the controls. Sample collection, internal standard addition, and analytical techniques (HPLC-MS/MS using an AB/Sciex API5500Q mass spectrometer equipped with an electrospray interface and coupled to a Shimadzu Prominence HPLC system) were as previously reported[7],[36]. […] Individual replicates were analysed using HPLC/TripleTOF mass spectrometry for possible transformation products as described in Mercurio 2016[36]. Briefly, 0.2 µm-filtered samples were directly injected into an ABSciex API5600+ Triple TOF mass spectrometer (ABSciex, Concord, Ontario, Canada) equipped with an electrospray (TurboV) interface coupled to a Shimadzu Nexera HPLC system (Shimadzu Corp., Kyoto, Japan). Separation was achieved using a 4 micron 50 × 2.0 mm Phenomenex Synergi Fusion RP column (Phenomenex, Torrance, CA) run at 45 °C, and a flow rate of 0.4 mL min^−1 with a linear gradient starting at 8% B for 0.5 minutes, ramped to 100% B in 8 minutes then held at 100% for 2.0 minutes followed by equilibration at 8% B for 2.5 minutes (A = 1% methanol in HPLC grade water, B = 95% methanol in HPLC grade water, both containing 0.1% acetic acid). The mass spectrometer was operated in positive ion SWATH mode. Briefly this mode comprises a TOF scan of 50 millisecond duration followed by small segments of the mass range being transmitted through the quadrupole, fragmented in the collision cell and full TOF mass spectra taken of the transformation products. Data from these experiments was examined using the Masterview software (ABSciex).
Potential transformation products identified using TOF mass spectrometry and other potential transformation products identified from literature were then re-examined by HPLC/ triple quadrupole mass spectrometry using multiple reaction monitoring. Product ions used were as identified from QTOF data or from literature references and parameters such as collision energy optimised by repeated injections of samples for compounds detected. […]

[3] abbreviates: read-out: IC20 parent (inhibition of ∆F/Fm′ by 20%).
[4] abbreviates: read-out: IC50 parent (inhibition of ∆F/Fm′ by 50%).

Each structure is given as a SMILES string. In brackets after ≈: the same amount, converted by molar mass.

Turning to `CCNc1nc(Cl)nc(NC(C)C)n1` [Atrazine], the IC20 in the series with Dunaliella sp. (setting [3]) was 0.018 µg/mL (≈ 0.0835 µM); in the series with Symbiodinium sp. (setting [3]) it was 0.014 µg/mL (≈ 0.0649 µM). The IC50 with Dunaliella sp. (setting [4]) was 0.035 µg/mL (≈ 0.162 µM); in the series with Symbiodinium sp. (setting [4]), 0.0345 µg/mL (≈ 0.16 µM). Further, the “IC10 parent (inhibition of ∆F/Fm′ by 10%)” value in the series on Dunaliella sp. (Dunaliella sp., pure compound) is given as 12 (11–14) µg l^−1; in the series on Symbiodinium sp. (Symbiodinium sp., pure compound), 8.6 (8.0–9.3) µg l^−1. The “LOEC, prawn larval metamorphosis” value in series [1] came to 899 µg/L. Besides, in series [1], the “NOEC, prawn larval metamorphosis” value stood at 197 µg/L. Besides, the “% degradation” value in series [2] amounted to 64%. Moreover, the Parent herbicide concentration in series [2] was 278 µg/L.

The values above are taken from article PMC5859250, “Contribution of transformation products towards the total herbicide toxicity to tropical marine organisms” (Scientific Reports, 2018).
